According to patent publication US12479831B2, “Substituted N(-methyl-D3)pyridazine-3-carboxamide or M-(methyl-D3)-nicotinamide compounds as IL-12, IL-23 and/or IFNα modulators” (BRISTOL-MYERS SQUIBB COMPANY, priority 2020, dated 2025):

Tested on: IFNα-Induced STAT Phosphorylation in Human Whole Blood
Experiment: IFNα-Induced STAT Phosphorylation in Human Whole Blood
Type: cell-based
Details: 1 h incubation with compound, 1000 U/mL recombinant human IFNα A/D for 15 min, pSTAT5 (pY694) median fluorescence intensity in CD3 positive population, read-out: hWB IC50

Structure (SMILES)	IC50
[2H]C([2H])([2H])NC(=O)c1nnc(NC(=O)C2CC2)cc1Nc1cccc(-c2cn(C)c(=O)cn2)c1OC [Example 10, 6-(cyclopropanecarboxamido)-4-((2-methoxy-3-(4-methyl-5-oxo-4,5-dihydropyrazin-2-yl)phenyl)amino)-N-(methyl-d3)pyridazine-3-carboxamide]	194 nM
[2H]C([2H])([2H])NC(=O)c1nnc(NC(=O)C2CC2)cc1Nc1cccc(-c2cc(=O)n(C)cn2)c1OC [Example 12, 6-(cyclopropanecarboxamido)-4-((2-methoxy-3-(1-methyl-6-oxo-1,6-dihydropyrimidin-4-yl)phenyl)amino)-N-(methyl-d3)pyridazine-3-carboxamide]	204 nM
[2H]C([2H])([2H])NC(=O)c1nnc(NC(=O)C2CC2)cc1Nc1cc(F)cc(-c2ncc(C(C)(O)CF)cn2)c1OC (stereo not drawn) [Example 32, 6-(cyclopropanecarboxamido)-4-((5-fluoro-3-(5-(1-fluoro-2-hydroxypropan-2-yl)pyrimidin-2-yl)-2-methoxyphenyl)amino)-N-(methyl-d3)pyridazine-3-carboxamide]	71 nM
[2H]C([2H])([2H])NC(=O)c1nnc(NC(=O)C2CC2)cc1Nc1cccc(-c2ncc(C(=O)N3CCCC3)cn2)c1OC [Example 47, 6-(cyclopropanecarboxamido)-4-((2-methoxy-3-(5-(pyrrolidine-1-carbonyl)pyrimidin-2-yl)phenyl)amino)-N-(methyl-d3)pyridazine-3-carboxamide]	126 nM

Next, values leading:

IC50	Structure (SMILES)
47 nM	[2H]C([2H])([2H])NC(=O)c1nnc(NC(=O)C2CC2)cc1Nc1cccc(-c2ncc(C3CCOC3)cn2)c1OC (stereo not drawn) [Example 55, 6-(Cyclopropanecarboxamido)-4-((2-methoxy-3-(5-(tetrahydrofuran-3-yl)pyrimidin-2-yl)phenyl)amino)-N-(methyl-d3)pyridazine-3-carboxamide]
137 nM	[2H]C([2H])([2H])NC(=O)c1nnc(Nc2cc3n(n2)CCN(C)C3=O)cc1Nc1cccc(-c2ncccn2)c1OC [Example 108, 4-((2-Methoxy-3-(pyrimidin-2-yl)phenyl)amino)-N-(methyl-d3)-6-((5-methyl-4-oxo-4,5,6,7-tetrahydropyrazolo[1,5-a]pyrazin-2-yl)amino)pyridazine-3-carboxamide]
96 nM	[2H]C([2H])([2H])NC(=O)c1nnc(Nc2ccc(OC)nn2)cc1Nc1cccc(-c2ncccn2)c1OC [Example 96, 4-((2-methoxy-3-(pyrimidin-2-yl)phenyl)amino)-6-((6-methoxypyridazin-3-yl)amino)-N-(methyl-d3)pyridazine-3-carboxamide]
267 nM	[2H]C([2H])([2H])NC(=O)c1nnc(NC(=O)C2CC2)cc1Nc1cccc(-c2cnc(N3CCN(C)CC3)cn2)c1OC [Example 58, 6-(cyclopropanecarboxamido)-4-((2-methoxy-3-(5-(4-methylpiperazin-1-yl)pyrazin-2-yl)phenyl)amino)-N-(methyl-d3)pyridazine-3-carboxamide]
27 nM	[2H]C([2H])([2H])NC(=O)c1nnc(NC(=O)C2CC2)cc1Nc1cccc(-c2ncc(N3CCCC3=O)cn2)c1OC [Example 112]
